Measured values from paper PMC6770006, “Novel Heat Shock Protein 90 Inhibitors Suppress P-Glycoprotein Activity and Overcome Multidrug Resistance in Cancer Cells” (International Journal of Molecular Sciences, 2019).
Entries after “also recorded” stand apart in the source; their conditions may differ.

Columns and labels:
NCI-H460/R cells = assay: MTT assay, cell growth inhibition, NCI-H460/R (MDR); assay type: cell-based, human; settings: for Efficacy in MDR NCI-H460/R cells compared with sensitive NCI-H460: 72 h; for IC50: Homo sapiens, NCI-H460, 72 h, MDR cells
Protocol: (§1) A series of 3-aryl-naphtho[2,3-d]isoxazole-4,9-diones were synthesized (Scheme 1, Figure 1) and their growth inhibition activity was tested in vitro on human non-small cell lung carcinoma NCI-H460, colorectal carcinoma DLD1 and their corresponding MDR cells (NCI-H460/R and DLD1-TxR, respectively), as well as normal embryonic lung fibroblasts MRC-5. The differences in cell growth inhibition between cancer and normal cells obtained by the MTT assay after 72 h treatment are presented in Table 1. The effect of compounds is presented as IC50 values that correspond to the 50% of cell growth inhibition.
(§2) Human colorectal carcinoma (DLD1), non-small cell lung carcinoma (NCI-H460), and normal embryonic lung fibroblast (MRC-5) cell lines were purchased from the American Type Culture Collection, Rockville, MD. P-gp overexpressing multidrug resistant DLD1-TxR cells were selected by continuous exposure to stepwise increasing concentrations of paclitaxel from DLD1 cells, while NCI-H460/R cells were selected from NCI-H460 cells after DOX selective pressure. MDR cancer cell lines, DLD1-TxR and NCI-H460/R, and their sensitive counterparts were maintained in RPMI 1640 medium supplemented with 10% FBS, 2 mM L-glutamine, and 10,000 U/mL penicillin, 10 mg/mL streptomycin, 25 mg/mL amphotericin B solutions. MRC-5 cells were cultured in DMEM supplemented with 10% FBS, 4 g/L glucose, 2 mM L-glutamine and 5000 U/mL penicillin, 5 mg/mL streptomycin solution. All cell lines were sub-cultured at 72 h intervals using 0.25% trypsin/EDTA and seeded into a fresh medium at 8000 cells/cm^2. All cell lines were maintained at 37 °C in a humidified 5% CO2 atmosphere.
(§3) Cell viability was assessed by the MTT assay (AppliChem GmbH, Darmstadt, Germany). Cells grown in 25 cm^2 tissue flasks were trypsinized and 1000 cells/well were seeded into flat-bottomed 96-well tissue culture plates and incubated overnight. Subsequently, the cells were treated with increasing concentrations of Hsp90 inhibitors for 72 h: compound 3 (0.1–2.5 µM), compound 4 (0.25–5 µM), compound 5 (0.5–25 µM), compound 6 (50–1000 nM), compound 7 (10–250 nM), compound 8 (0.25–5 µM), compound 9 (10–250 nM), compound 10 (0.5–25 µM), compound 13 (0.5–10 µM), compound 14 (1–25 µM), and compound 15 (10–250 nM). […] After treatment, MTT was added to each well in a final concentration of 0.2 mg/mL for 4 h. Formazan product was dissolved in 200 µl of DMSO, and the absorbance was measured at 540 nm using an automatic LKB 5060-006 Micro Plate Reader (Vienna, Austria). IC50 value was defined as a concentration of the drug that inhibited cell growth by 50% and was calculated by nonlinear regression analysis using GraphPad Prism 6.0 for Windows (La Jolla, CA, USA). Relative selectivity towards cancer cells was calculated as a relation between IC50 value obtained in MRC-5 cells and an average IC50 value from four tested cancer cell lines.

MRC-5 cells = assay: MTT assay, normal embryonic lung fibroblasts MRC-5; assay type: cell-based, human; settings: for IC50: Homo sapiens, MRC5, MTT, 72 h, normal fibroblasts, read-out: Cell growth inhibition IC50, MRC-5; for Relative Selectivity: IC50 in MRC-5 cells / average IC50 of four cancer cell lines
Protocol: as §1, §3

Hsp90 = system: Hsp90; parameters: method as in PMID 22538015; settings: read-out: Hsp90 Affinity binding; cited from earlier work
P-gp = P-gp (Homo sapiens, UniProt P08183); assay: Rhodamine 123 accumulation assay (P-gp activity, flow cytometry); assay type: cell-based; parameters: P-gp overexpressing multidrug resistant DLD1-TxR cells were selected by continuous exposure to stepwise increasing concentrations of paclitaxel from DLD1 cells; endogenous in cells; host or cells: NCI-H460/R and DLD1-TxR (drug-selected MDR human cancer cells); settings: 30 min, Figure 3a; for P-gp activity / Rho 123 accumulation: MDR NCI-H460/R and DLD1-TxR cells, one concentration per compound (100 nM-10 µM); for P-gp activity / Rho 123 accumulation in DLD1-TxR: DLD1-TxR cells
Chain of P-gp (P08183 whole entry): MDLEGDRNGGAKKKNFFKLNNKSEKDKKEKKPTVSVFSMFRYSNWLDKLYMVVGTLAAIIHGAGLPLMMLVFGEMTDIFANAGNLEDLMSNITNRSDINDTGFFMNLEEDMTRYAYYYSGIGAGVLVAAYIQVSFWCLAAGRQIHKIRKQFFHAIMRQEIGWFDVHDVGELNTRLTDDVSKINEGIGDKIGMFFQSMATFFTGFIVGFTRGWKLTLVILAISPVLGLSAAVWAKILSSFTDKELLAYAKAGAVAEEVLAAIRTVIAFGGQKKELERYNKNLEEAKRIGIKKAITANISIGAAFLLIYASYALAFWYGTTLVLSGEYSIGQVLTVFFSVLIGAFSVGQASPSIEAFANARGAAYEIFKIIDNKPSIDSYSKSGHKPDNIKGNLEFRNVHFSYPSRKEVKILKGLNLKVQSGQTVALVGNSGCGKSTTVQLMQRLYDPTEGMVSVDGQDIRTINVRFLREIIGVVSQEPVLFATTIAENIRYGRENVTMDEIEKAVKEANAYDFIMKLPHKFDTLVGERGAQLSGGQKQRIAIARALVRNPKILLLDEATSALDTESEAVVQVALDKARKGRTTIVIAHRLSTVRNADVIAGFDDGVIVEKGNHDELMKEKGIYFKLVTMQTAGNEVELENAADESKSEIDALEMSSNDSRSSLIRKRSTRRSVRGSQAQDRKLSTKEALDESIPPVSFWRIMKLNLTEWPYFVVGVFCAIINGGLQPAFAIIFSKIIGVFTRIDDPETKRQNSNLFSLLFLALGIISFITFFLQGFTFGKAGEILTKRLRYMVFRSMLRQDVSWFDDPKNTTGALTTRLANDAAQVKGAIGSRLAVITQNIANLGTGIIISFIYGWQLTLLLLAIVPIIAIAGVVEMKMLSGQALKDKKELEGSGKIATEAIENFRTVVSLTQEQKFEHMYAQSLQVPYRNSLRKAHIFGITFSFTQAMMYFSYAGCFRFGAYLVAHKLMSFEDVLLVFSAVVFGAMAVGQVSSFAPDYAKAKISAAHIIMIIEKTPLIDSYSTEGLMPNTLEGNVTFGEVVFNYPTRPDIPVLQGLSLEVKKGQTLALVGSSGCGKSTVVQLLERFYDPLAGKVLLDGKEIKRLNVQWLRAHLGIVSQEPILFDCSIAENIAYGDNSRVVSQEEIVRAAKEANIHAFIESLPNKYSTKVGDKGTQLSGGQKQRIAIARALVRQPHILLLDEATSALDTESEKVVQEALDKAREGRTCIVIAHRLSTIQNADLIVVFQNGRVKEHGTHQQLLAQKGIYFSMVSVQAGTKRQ
Protocol: To study the effect of Hsp90 inhibitors on P-gp activity in MDR cancer cells, intracellular accumulation of the P-gp substrate rhodamine 123 (Rho 123) was analyzed by flow cytometry after 30 min treatment (Figure 3a). A well-known inhibitor of P-gp activity, tariquidar (TQ), was included as a positive control.
The accumulation of Rho 123, a fluorescent P-gp substrate, was measured by flow cytometry. The intensity of the fluorescence is proportional to Rho 123 accumulation in the cell. All cell lines were seeded in adherent 6-well plates and grown overnight. DLD1-TxR and NCI-H460/R cells were treated for 30 min with the following concentrations of Hsp90 inhibitors: 500 nM compound 3, 1 µM compound 4, 10 µM compound 5, 500 nM compound 6, 500 nM compound 7, 1 µM compound 8, 500 nM compound 9, 1 µM compound 10, 1 µM compound 13, 10 µM compound 14, 100 nM compound 15. TQ (10 nM) was used as a positive control for Rho 123 accumulation. Rho 123 (5 μM) was simultaneously added with the investigated compounds and the cells were incubated at 37 °C in 5% CO2 for 30 min. The cells were then trypsinized, pelleted by centrifugation, washed with PBS and placed in ice-cold PBS. The samples were kept on ice in the dark until the analysis on CyFlow Space Partec flow cytometer (Sysmex Partec GmbH, Görlitz, Germany). The fluorescence of Rho 123 was detected on fluorescence channel 1 (FL1-H) at 530 nm. A minimum of 10,000 events were collected for each sample and the obtained results were analyzed using Summit software.

NCI-H460 cells = assay: MTT assay, cell growth inhibition, NCI-H460; assay type: cell-based; settings: Homo sapiens, 72 h, three independent experiments
Protocol: as §1, §3

DLD1-TxR cells = assay: MTT assay, cell growth inhibition, DLD1-TxR (MDR); assay type: cell-based, human; settings: 72 h; for IC50: Homo sapiens, MDR cells
Protocol: as §1, §2, §3

DLD1 cells = assay: MTT assay, cell growth inhibition, DLD1; assay type: cell-based; settings: Homo sapiens, DLD-1, 72 h
Protocol: as §1, §3

P-gp expression = assay: Flow cytometric analysis of P-gp expression; assay type: cell-based, human; settings: 72 h; for Change in P-gp expression, DLD1 / Change in P-gp expression, NCI-H460: 5 µM 5, 200 nM 7, 100 nM 9, 10 nM TQ, 50 nM DOX, 50 nM PTX
Protocol: P-glycoprotein expression level in NCI-H460, NCI-H460/R, DLD1, and DLD1-TxR and cells was measured by flow cytometry. All cell lines were seeded in adherent 6-well plates and treated with Hsp90 inhibitors for 72 h at the following concentrations: 5 µM compound 5, 200 nM compound 7, 100 nM compound 9 (NCI-H460 and DLD1), and 10 µM compound 5, 500 nM compound 7, 500 nM compound 9 (NCI-H460/R and DLD1-TxR). Cells were also treated with 10 nM TQ, a non-competitive P-gp inhibitor, which served as a positive control. In addition, sensitive cells (NCI-H460 and DLD1) were treated with 50 nM DOX and 50 nM PTX that served as positive controls for the induction of P-gp expression. Then, cells were collected by trypsinization, washed with PBS, and directly immunostained by FITC-conjugated anti-P-gp antibody according to the manufacturer’s protocol. The samples were kept in the dark until the analysis on CyFlow Space Partec flow cytometer (Sysmex Partec GmbH, Görlitz, Germany). The fluorescence of FITC-conjugated anti-P-gp was detected on fluorescence channel 1 (FL1-H) at 530 nm. A minimum of 10,000 events were collected for each sample (the gate excluded cell debris and dead cells) and the obtained results were analyzed with Summit software v4.3 (Dako Colorado Inc., Fort Collins, CO, USA).

[1] = system: NCI-H460, NCI-H460/R, DLD1, DLD1-TxR cells; assay: MTT assay, grouping of inhibitors by IC50 over the cancer cell lines; assay type: cell-based; settings: Homo sapiens, Figure 2b, read-out: IC50 values (grouping for Pearson correlation)
Protocol: When the IC50 values obtained by the MTT assay were compared to Hsp90 affinity binding IC50 values (Table 1), a positive Pearson correlation (r > 0.5) was found for all cancer cell lines (Figure 2b).
as §3

[2] = 10 µM 5, 500 nM 7, 500 nM 9, 10 nM TQ

IC50 (NCI-H460/R cells) [nM]	P-gp activity / Rho 123 accumulation (P-gp)	IC50 (NCI-H460 cells) [nM]	IC50 (DLD1-TxR cells) [nM]	IC50 (DLD1 cells) [nM]	IC50 [1] [nM]	P-gp activity / Rho 123 accumulation in DLD1-TxR (P-gp)	Structure (SMILES)	Efficacy in MDR NCI-H460/R cells compared with sensitive NCI-H460 (NCI-H460/R cells)	IC50 (MRC-5 cells) [nM]	Relative Selectivity (MRC-5 cells)	IC50 (Hsp90) [nM]	Efficacy in MDR DLD1-TxR cells compared with sensitive DLD1 (DLD1-TxR cells)	Change in P-gp expression, DLD1 (P-gp expression)	Change in P-gp expression, NCI-H460 (P-gp expression)	Change in P-gp expression, DLD1-TxR (P-gp expression; [2])	Change in P-gp expression, NCI-H460/R (P-gp expression; [2])
23600 ± 470	–	978 ± 18	10600 ± 270	7450 ± 212	≥ 1000	partially restored	COc1cccc2c1C(=O)c1c(-c3cc[n+](Cc4ccccc4)cc3)noc1C2=O [Compound 14]	further compromised in the presence of MDR phenotype in both cell lines	53300 ± 1730	5.00	340	further compromised in the presence of MDR phenotype in both cell lines	–	–	–	–
39 ± 1	–	52 ± 2	193 ± 7	44 ± 1	< 1000	maintained a certain activity	CC(=O)Oc1cccc2c1C(=O)c1c(-c3ccncc3)noc1C2=O [Compound 15]	maintained	250 ± 14	3.05	84	lower	–	–	–	–
1375 ± 12	reduction in activity	1270 ± 14	1790 ± 36	2640 ± 35	≥ 1000	–	O=C1c2ccccc2C(=O)c2c(-c3ccccn3)noc21 [Compound 10]	overcame resistance	257 ± 4	–	1060	collateral sensitivity	–	–	–	–

Further lines, the compound ahead of its results:

Structure (SMILES)	IC50 (NCI-H460/R cells) [nM]	P-gp activity / Rho 123 accumulation (P-gp)	IC50 (NCI-H460 cells) [nM]	IC50 (DLD1-TxR cells) [nM]	IC50 (DLD1 cells) [nM]	IC50 [1] [nM]	P-gp activity / Rho 123 accumulation in DLD1-TxR (P-gp)	Efficacy in MDR NCI-H460/R cells compared with sensitive NCI-H460 (NCI-H460/R cells)	IC50 (MRC-5 cells) [nM]	Relative Selectivity (MRC-5 cells)	IC50 (Hsp90) [nM]	Efficacy in MDR DLD1-TxR cells compared with sensitive DLD1 (DLD1-TxR cells)	Change in P-gp expression, DLD1 (P-gp expression)	Change in P-gp expression, NCI-H460 (P-gp expression)	Change in P-gp expression, DLD1-TxR (P-gp expression; [2])	Change in P-gp expression, NCI-H460/R (P-gp expression; [2])
COc1ccc(-c2noc3c2C(=O)c2ccccc2C3=O)cc1 [Compound 4]	579 ± 18	did not have any positive effects	935 ± 48	1060 ± 25	1520 ± 54	–	–	remained higher than in the corresponding sensitive cells	1750 ± 83	1.71	5840	remained higher than in the corresponding sensitive cells	–	–	–	–
CC(=O)O[C@H]1C(=O)[C@@]2(C)[C@H]([C@H](OC(=O)c3ccccc3)[C@]3(O)C[C@H](OC(=O)[C@H](O)[C@@H](NC(=O)c4ccccc4)c4ccccc4)C(C)=C1C3(C)C)[C@]1(OC(C)=O)CO[C@@H]1C[C@@H]2O [PTX, paclitaxel]	–	–	–	–	–	–	–	–	–	–	–	–	significantly increased P-gp expression	significantly increased P-gp expression	–	–
COc1cc2c(cc1OC)CN(CCc1ccc(NC(=O)c3cc(OC)c(OC)cc3NC(=O)c3cnc4ccccc4c3)cc1)CC2 [TQ, tariquidar]	–	–	–	–	–	–	–	–	–	–	–	–	increased P-gp expression	did not influence the P-gp expression	increased P-gp expression	did not influence the P-gp expression
O=C1c2ccccc2C(=O)c2c(-c3cc[n+](Cc4ccccc4)cc3)noc21 [Compound 8]	351 ± 5	detrimental; also recorded: modest activity	159 ± 3	3360 ± 49	251 ± 3	≥ 1000	–	compromised in the presence of the MDR phenotype	11000 ± 366	10.69	34	compromised in the presence of the MDR phenotype	–	–	–	–
O=C1c2ccccc2C(=O)c2c(-c3ccc(OCCN4CCOCC4)cc3)noc21 [Compound 6]	472 ± 18	did not have any positive effects	807 ± 35	439 ± 10	439 ± 6	< 1000	–	collateral sensitivity	4740 ± 473	8.79	1200	evaded resistance	–	–	–	–
O=C1c2ccccc2C(=O)c2c(-c3ccccc3)noc21 [Compound 3]	599 ± 20	did not influence the P-gp activity	785 ± 32	644 ± 20	925 ± 32	< 1000	–	better efficacy in cells with MDR phenotype	636 ± 23	–	7850	better efficacy in cells with MDR phenotype	–	–	–	–
